System: MF patients
Test: Phase 1/2 clinical study in MF patients treated with HCl salt of Compound (1) (TP-3654-102)
Format: in vivo, human
Parameters: reduction in IL6 / reduction in IL12p40 / reduction in MMP9 / reduction in EN-RAGE / median TSS reduction from baseline: concentration or dose not given beside the values
Method: Patients with MF (primary MF, post-PV MF, post-ET MF) and DIPSS intermediate-1, intermediate-2, or high risk were enrolled in a Phase 1/2 clinical study.
Dose escalation to 960 mg BID and 1440 mg BID is intended.
Patients had to meet all of the following inclusion criteria to enroll in the study: • 1. Adult (≥18 years of age) • 2. Confirmed pathological diagnosis of primary MF (PMF) or post-PV-MF/postET-MF as per WHO diagnostic criteria and intermediate or high-risk primary or secondary MF based on the Dynamic International Prognostic Scoring System (DIPSS). • 3. Previously treated with a JAK inhibitor and are intolerant, resistant, refractory or lost response to the JAK inhibitor, or are ineligible to be treated with ruxolitinib or fedratinib at the discretion of the investigator. • 4. Grade≥2 bone marrow fibrosis, as confirmed by bone marrow biopsy within 12 weeks prior to Screening. • 5. Fulfill the following laboratory parameters: • a. Platelet count≥25×10^9/L (without the assistance of growth factors or platelet transfusions) • b. Absolute neutrophil count (ANC)≥1×10^9/L without the assistance of granulocyte growth factors. • 6. Peripheral blood blast count<10%. • 7. Eastern Cooperative Oncology Group (ECOG) performance status≤2. • 8. Life expectancy≥3 months. • 9. […] Adequate hepatic function (ALT/AST≤3×ULN, total bilirubin≤1.5×ULN; or ALT/AST≤5×ULN, direct bilirubin≤2×ULN if due to MF); and coagulation ([PT and PTT]≤1.5×ULN). • 11. Agree to provide bone marrow biopsies during the study: at baseline or within 12 weeks prior to enrollment, and every 6 months during treatment. • 12. Capable of providing signed informed consent as described in which includes compliance with the requirements and restrictions listed in the informed consent form (ICF) and in this protocol • 13. […] Show at least 2 symptoms measurable (score≥1) using the Myelofibrosis Symptom Assessment Form (MFSAF), v4.0. • 16. Able to take orally administered medication
Patients meeting any one of the exclusion criteria were prohibited from participating in the study: • 1. Received previous systemic antineoplastic therapy (including unconjugated therapeutic antibodies, toxin immunoconjugates, ESA, and alpha-interferon) or any experimental therapy within 14 days or 5 half-lives, whichever is longer, before the first dose of study treatment. • 2. Major surgery within 2 weeks before the first dose of either study drug. • 3. Splenic irradiation within 6 months prior to Screening or prior splenectomy. • 4. AML, MDS, or peripheral blasts≥10%. • 5. Prior autologous or allogeneic stem cell transplant at any time. • 6. Eligible for allogeneic bone marrow or stem cell transplantation within 3 months following enrollment (not a candidate or not willing to undergo transplantation or a suitable donor not available are considered as transplant ineligible). • 7. Currently receiving treatment with a prohibited medication that cannot be discontinued at least one week prior to the start of treatment. • 8. Experiencing electrolyte abnormalities of NCI CTCAE Grade≥2 (e.g., serum potassium, magnesium and calcium) unless they can be corrected during screening and are deemed not clinically significant by the Investigator. • 9. History of congestive heart failure, myocardial infarction within the past 6 months prior to Cycle 1/Day 1; left ventricular ejection fraction<45% by echocardiogram or MUGA, unstable arrhythmia, or evidence of ischemia on electrocardiogram (ECG) within 14 days prior to Cycle 1/Day 1. • 10. Corrected QT interval (using Fridericia's correction formula) of >450 msec in men and >470 msec in women. • 11. Central nervous system (CNS) cancer or metastases, meningeal carcinomatosis, malignant seizures, or a disease that either causes or threatens neurologic compromise (e.g., unstable vertebral metastases). • 12. Other invasive malignancies within the last 3 years, except non-melanoma skin cancer, and localized cured prostate and cervical cancer • 13. […]

[1] = R/R MF, ≥25 × 10^9/L PLT, monotherapy
[2] = TP-3654-102, R/R MF, monotherapy, N = 23
[3] = first interim analysis, FIG. 5G
[4] = first interim analysis, monotherapy, 480 mg QD to 720 mg BID
[5] = first interim analysis, over treatment duration
[6] = first interim analysis, treatment duration ≥12 weeks
[7] = one patient with bone marrow fibrosis reduction
[8] = second interim analysis, MFSAF v4.0
[9] = second interim analysis, n = 13

## CC(C)(O)[C@H]1CC[C@H](Nc2ccc3ncc(-c4cccc(C(F)(F)F)c4)n3n2)CC1 [Compound (1)]
R/R MF, Ph 1
  Hem AE (>10%), thrombocytopenia: No ≥G3
[1]
  SVR35 at Week 24: 23%
  TSS50 at Week 24: 54%
[2]
  TEAE Anemia, All Gr: 13%
  TEAE Anemia, ≥3 Gr: 4.3%
  TEAE Neutropenia, All Gr: 0%
  TEAE Neutropenia, ≥3 Gr: 0%
  TEAE Thrombocytopenia, All Gr: 22%
  TEAE Thrombocytopenia, ≥3 Gr: 13%
First interim analysis
  patients with myelosuppressive adverse events (anemia, neutropenia, thrombocytopenia): 1 patient
  time at which cytokine modulation was observed (as early as): ≤ 24 h
[3]
  patients with reduced spleen size and reduced symptoms: 4 patients
  patients with spleen volume increase and reduced symptoms: 1 patient
  patients with spleen volume reduction and increased symptoms: 1 patient
First interim analysis, cytokine changes available for 7 patients
  reductions in cytokines vs total symptoms reduction: More reductions in cytokines were observed in patients who had more total symptoms reduction
[4]
  hemoglobin: increased in some patients
  neutrophil counts: stable
  platelet counts: stable or increased
[5]
  spleen volume, median best change: −13%
  total symptom score, median best change: −70%
[6]
  patients with spleen volume reduction: Eight out of 10
  patients with total symptom reduction: Nine out of 10
For most patients, monotherapy
  change for platelet count, hemoglobin, and neutrophil reduction: less than 1 grade
[7]
  reduction in EN-RAGE: 68%
  reduction in IL12p40: 83%
  reduction in MMP9: 56%
One patient with bone marrow fibrosis reduction, printed 1L6
  reduction in IL6: 68%
One patient, on active treatment >18 months
  bone marrow fibrosis reduction: from grade 3 to 2
Relative to toxicities reported for other MF treatments
  overlapping hematological toxicities (thrombocytopenia and/or anemia): minimal or no indication of overlapping hematological toxicities
Second interim analysis
  patients achieving ≥35% SVR (number): 3 of 13
Second interim analysis, 13 evaluable patients
  median spleen volume change: −11%
Second interim analysis, 23 patients, 5 dose levels
  dose limiting toxicities: no dose limiting toxicities
[8]
  median TSS reduction from baseline: 70%
  patients with TSS reduction: 12 out of 13
  patients with ≥50% TSS reduction (number): Seven of 13
[9]
  patients achieving ≥35% SVR (percent): 23%
  patients with ≥50% TSS reduction (percent): 54%
Second interim analysis, of seven patients with ≥50% TSS reduction
  patients with ≥50% TSS reduction and durable response for ≥12 weeks: 5 patients
Second interim analysis, ≥12 weeks of treatment, 13 evaluable
  patients with spleen volume reduction (SVR): 10 patients
Second interim analysis, printed mg BTD
  doses declared safe: up to 720 mg

From patent US20260306490A1, “PIM1 INHIBITOR FOR TREATING MYELOPROLIFERATIVE NEOPLASMS” (Sumitomo Pharma America, Inc., priority 2022, published 2026)
